Reference: patent US20260306490A1, “PIM1 INHIBITOR FOR TREATING MYELOPROLIFERATIVE NEOPLASMS” (Sumitomo Pharma America, Inc., priority 2022, published 2026)

Assays:
Format in all cases: cell-based
[1] = test system: human erythroid progenitors (CFU-E, BFU-E); experiment: Colony forming cell assay, human erythroid progenitor (CFU-E, BFU-E) proliferation; conditions: 336 h, single agent, 14 days, CFU-E and BFU-E
Protocol: (§1) Clonogenic progenitors of human erythroid (CFU-E, BFU-E), granulocyte-monocyte (CFU-GM), and multipotential (CFU-GEMM) lineages were assessed in a semi-solid methylcellulose-based media formulation containing rhIL-3 (10 ng/mL), rhGM-SCF (10 ng/mL), rhSCF (50 ng/mL), and Epo (3 U/mL).
(§2) In addition, 5-FU was evaluated at 1.0, 0.1 and 0.01 μg/mL as a positive control for toxicity.
(§3) Normal human bone marrow light density cells (lot #0210901), derived from normal bone marrow, (Lonza, Maryland) and qualified at ReachBio, were stored at −152° C. until required for the assay. On the day of the experiment, the cells were thawed rapidly, diluted in 10 mL of Iscove's modified Dulbecco's medium containing 10% fetal bovine serum (IMDM+10% FBS) and washed by centrifugation (approximately 1500 r.p.m. for 10 minutes at room temperature). The supernatant was discarded and the cell pellets were resuspended in a known volume of IMDM+10% FBS. A cell count (3% glacial acetic acid) and viability assessment (trypan blue exclusion test) was performed for the bone marrow sample.
Clonogenic progenitors of human megakaryocyte (CFU-Mk) were assessed in a collagen-based media formulation containing rhIL-3 (10 ng/mL), rhIL-6 (10 ng/mL), and Tpo (50 ng/mL). Clonogenic progenitors of the human erythroid (CFU-E and BFU-E), myeloid (CFU-GM), and megakaryocyte (CFU-Mk) lineages were set up in the media formulations described above. Individually, the test compounds were added to the medium to give the final desired concentrations (10, 3.33, 1, 0.333, 0.1, 0.0333, 0.01 and 0.00333 μM). […]
Human myeloid and erythroid progenitor assays were initiated at 1.2×10^4 cells per culture (lot #0210921) and the human megakaryocyte assays were initiated at 1.2×10^5 cells per culture (lot #0210921). Following 14 days in culture, erythroid and myeloid colonies were assessed microscopically in situ and scored by trained personnel. […] The colonies were assessed microscopically and scored by trained personnel and divided into the following categories based on size: CFU-Mk (3-20), CFU-Mk (21-49), and CFU-Mk (≥50).
Statistical analysis: The mean±standard deviation of three replicate cultures was calculated for both erythroid and myeloid progenitors. […]
(§4) Erythroid (CFU-E and BFU-E) and myeloid (CFU-GM) colony enumeration was performed by trained personnel. In addition, the distribution of colony types as well as general colony and cellular morphology was analyzed. The variance in colony number detected in replicate cultures was representative of the historical coefficient of variation for colony enumeration using these types of assays. The number and distribution of colonies detected in the solvent control (0.1% DMSO for single agents) was no different from the standard control (containing no compound and no DMSO). […]

[2] = test system: human myeloid progenitors (CFU-GM); experiment: Colony forming cell assay, human myeloid (granulocyte-monocyte, CFU-GM) progenitor proliferation; conditions: single agent
Protocol: as §1, §2, §3
(§5) Clonogenic progenitors of human megakaryocyte (CFU-Mk) were assessed in a collagen-based media formulation containing rhIL-3 (10 ng/mL), rhIL-6 (10 ng/mL), and Tpo (50 ng/mL). Clonogenic progenitors of the human erythroid (CFU-E and BFU-E), myeloid (CFU-GM), and megakaryocyte (CFU-Mk) lineages were set up in the media formulations described above. Individually, the test compounds were added to the medium to give the final desired concentrations (10, 3.33, 1, 0.333, 0.1, 0.0333, 0.01 and 0.00333 μM). […] Solvent control cultures (containing no compound but 0.1% DMSO) as well as standard controls (containing no compound and no DMSO) were also initiated. Once introduced into the matrices, the tubes were vortexed to ensure an equal distribution throughout.
(§6) Human myeloid and erythroid progenitor assays were initiated at 1.2×10^4 cells per culture (lot #0210921) and the human megakaryocyte assays were initiated at 1.2×10^5 cells per culture (lot #0210921). Following 14 days in culture, erythroid and myeloid colonies were assessed microscopically in situ and scored by trained personnel. The colonies were divided into the following categories based on size and morphology: CFU-E, BFU-E, CFU-GM, and CFU-GEMM. The human megakaryocyte cultures were transferred from the 35 mm dishes to labeled glass slides, fixed with methanol/acetone fixative, and then stained with anti-human CD41 antibody and an alkaline phosphate detection system according to manufacturers' instructions. The colonies were assessed microscopically and scored by trained personnel and divided into the following categories based on size: CFU-Mk (3-20), CFU-Mk (21-49), and CFU-Mk (≥50).
(§7) Statistical analysis: The mean±standard deviation of three replicate cultures was calculated for both erythroid and myeloid progenitors. Two-tailed standard t-tests were performed to assess if there was a difference in the number of colonies generated between solvent control and treated cultures. Due to the potential subjectivity of colony enumeration, a p value of less than 0.01 is deemed significant. To calculate the concentration of 50% inhibition of colony growth (IC50) for each compound, a dose response curve was generated plotting the log of the compound concentration versus the percentage of control colony growth using GraphPad Prism 9 software.
as §4

[3] = test system: human megakaryocyte progenitors (CFU-Mk); experiment: Colony forming cell assay, human megakaryocyte progenitor (CFU-Mk) proliferation; conditions: Homo sapiens; single agent; read-out: IC50, total CFU-Mk (megakaryocyte progenitor proliferation)
Protocol: as §2, §3, §5, §6, §7
Other than the test compounds being combined, the only change from the method in Example 1 was a 0.2% DMSO solvent control instead of 0.1% DMSO. The results are provided in FIGS. 2A-4C (FIGS. 2A-2C are human megakaryocytes (CFU-MK), FIGS. 3A-3C are human erythroid (CFU-E, BFU-E), and FIGS. 4A-4C are human granulocyte-monocyte (CFU-GM).

CC(C)(O)[C@H]1CC[C@H](Nc2ccc3ncc(-c4cccc(C(F)(F)F)c4)n3n2)CC1 [Compound (1)]
IC50 [1]: 4250 nM | IC50 ([2]; Homo sapiens, 336 h, 14 days, CFU-GM): 1310 nM | concentrations at which myeloid progenitor proliferation was (significantly, additionally) inhibited ([2]; vs 0.1% DMSO solvent control, p<0.01): 1.0 µM | IC50 [3]: 1560 nM
